Measured values taken from patent US20240150277A1, “Covalent PPARG inverse-agonists” (Bayer Aktiengesellschaft, priority 2022, published 2024).
Read-outs that look alike come from different tables or passages of the source.

What was measured:
UMUC9 cells = assay: Proliferation UMUC9 H2B-GFP assay (Incucyte); assay type: cell-based; conditions: 7 days of treatment; for IC50: Day 1 subtracted, percentage of DMSO control; for Emax: UM-UC-9, 168 h
Protocol: Proliferation UMUC9 H2B-GFP assay
Instrument: Incucyte® (Sartorius).
Description: Incucyte® Proliferation Assay measures cell proliferation based on nuclei count using live-cell time-lapse imaging. […] Measurements were performed on the day of treatment (Day 1 reading) and after 7 days of treatment (Day 8 reading). Green fluorescence in cell nuclei is measured using the instrument (Image Channels: Phase, Green; Acquisition time: 300 ms; Magnification: 4×).
Analysis: Selected metrics for analysis: Phase Object Confluence (Percent), Nuclei Count (1/Well) and Total Nuclei Area (μm^2/Well). Day 1 measurements were subtracted from each Day 8 measurement and expressed as percentage of the vehicle (DMSO) control. Percentage proliferation values were then plotted against compound concentration using GraphPad PRISM software. The Sigmoidal 4PL X is log (concentration) model of […] was used. Relative IC50 values and % efficacy (span) is reported below.

PPARG receptors = molecular target: T1, PPARG receptors (Homo sapiens, UniProt P37231); assay: RT-112-FABP4-NLuc Reporter Gene Assay (inverse agonism); assay type: cell-based; conditions: incubated over night; for IC50 / PPARG_RT-112_FABP4_NLuc_inverse agonist Efficacy - [%]: bladder cancer cell line RT-112/84, NanoLuc in FABP4 3′ UTR; for IC50: 50 μM to 0.03 nM; for Emax: RT112/84, read-out: PPARG_RT-112_FABP4_NLuc_inverse agonist Efficacy - [%], bladder cancer cell line RT-112/84, NanoLuc in FABP4 3′ UTR
T1 construct: leading to PPARG dependent expression of the NanoLuc@ Luciferase; endogenous in cells
T1 sequence (P37231 1-505): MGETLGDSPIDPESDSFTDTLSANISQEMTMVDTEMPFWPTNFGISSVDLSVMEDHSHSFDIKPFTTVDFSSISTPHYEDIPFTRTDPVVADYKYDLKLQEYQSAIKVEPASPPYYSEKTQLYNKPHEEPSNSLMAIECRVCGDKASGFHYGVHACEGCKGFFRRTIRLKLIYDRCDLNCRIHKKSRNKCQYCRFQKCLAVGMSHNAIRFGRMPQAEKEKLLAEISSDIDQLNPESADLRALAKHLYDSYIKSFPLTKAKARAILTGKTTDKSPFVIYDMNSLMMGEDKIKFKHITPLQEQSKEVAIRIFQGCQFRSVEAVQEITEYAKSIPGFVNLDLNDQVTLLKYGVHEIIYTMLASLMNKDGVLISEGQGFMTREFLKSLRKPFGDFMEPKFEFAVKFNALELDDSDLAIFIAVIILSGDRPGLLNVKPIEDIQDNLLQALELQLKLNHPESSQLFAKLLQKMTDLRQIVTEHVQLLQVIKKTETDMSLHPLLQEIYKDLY
Protocol: Inverse agonists reduce the basal expression of the Luciferase resulting in a decrease of the Luciferase signal after addition of substrate and cell lysis. To exclude toxic effects of the compounds a parallel measurement of cell viability was performed based on the CellTiter Glo Assay (Promega).
On the next day 10 μl of test compounds dissolved in DMEM/F12 2% FBS and 0,01% BSA are placed in the wells of the microtiter plates. Final concentrations ranged from 50 μM to 0.03 nM. […] On the next day the NanoLuc Luciferase activity was measured by addition of 40 μl of NanoLuc substrate and lysis buffer (Promega, Madison, Wisconsin) diluted in 2 mM Ca-tyrode buffer (20 mM HEPES, 130 mM NaCl, 5 mM KCl, 5 mM NaHCO3, 2 mM MgCl2, pH 7,4). The resulting light signal was measured for 60 seconds in a luminometer. Every sample was tested in quadruples and mean values were used to calculate the IC50 values and efficacies of the compounds.

[1] = relative IC50, read-out: UM-UC-9 GFP proliferation IC50 -
[2] = PPARG_RT-112_FABP4_NLuc_inverse agonist IC50 - [mol/l]

## Cc1cc(N2CCCC(O)C2)ccc1NC(=O)c1cc(C(=O)NCc2ccc(F)c(F)c2)c(F)cc1Cl (single isomer, unassigned) [Example 5, 4-chloro-N′-[(3,4-difluorophenyl)methyl]-6-fluoro-N^3-{4-[3-hydroxypiperidin-1-yl]-2-methylphenyl}benzene-1,3-dicarboxamide]
UMUC9 cells; % efficacy (span)
  UM-UC-9 GFP proliferation Efficacy - [%]: 78.67%
UMUC9 cells; [1]
  IC50: 5.38 nM
PPARG receptors; [2]
  IC50: 1.27 nM
PPARG receptors
  Emax: 116%

## Cc1cc(N2CCCC(O)C2)ccc1NC(=O)c1cc(C(=O)NCc2ccc(F)c(F)c2)c(F)cc1Cl (single isomer, unassigned) [Example 6, 4-chloro-N′-[(3,4-difluorophenyl)methyl]-6-fluoro-N^3-{4-[3-hydroxypiperidin-1-yl]-2-methylphenyl}benzene-1,3-dicarboxamide]
UMUC9 cells; % efficacy (span)
  Emax: 79.5%
UMUC9 cells; [1]
  IC50: 21.7 nM
PPARG receptors; [2]
  IC50: 4.1 nM
PPARG receptors
  PPARG_RT-112_FABP4_NLuc_inverse agonist Efficacy - [%]: 134.50%

## Cc1cc(C(F)(F)F)ccc1NC(=O)c1cc(C(=O)NC(CO)c2ccccc2)c(F)cc1Cl (single isomer, unassigned) [Example 29, 4-chloro-6-fluoro-N^1-[(1R*)-2-hydroxy-1-phenylethyl]-N^3-[2-methyl-4-(trifluoromethyl)phenyl]benzene-1,3-dicarboxamide]
PPARG receptors; [2]
  IC50: 130 nM
PPARG receptors
  PPARG_RT-112_FABP4_NLuc_inverse agonist Efficacy - [%]: 81.00%

## Cc1cc(C(F)(F)F)ccc1NC(=O)c1cc(C(=O)NC(CO)c2ccccc2)c(F)cc1Cl (single isomer, unassigned) [Example 30, 4-chloro-6-fluoro-N^1-[(1R*)-2-hydroxy-1-phenylethyl]-N^3-[2-methyl-4-(trifluoromethyl)phenyl]benzene-1,3-dicarboxamide]
UMUC9 cells; % efficacy (span)
  Emax: 49.6%
UMUC9 cells; UM-UC-9, relative IC50
  IC50: 66.1 nM
PPARG receptors; [2]
  IC50: 17.5 nM
PPARG receptors
  PPARG_RT-112_FABP4_NLuc_inverse agonist Efficacy - [%]: 105.50%

## Cc1cc(OC(F)F)ccc1NC(=O)c1cc(C(=O)NCc2ccccc2O)c(F)cc1Cl [Example 1, 4-chloro-N^3-[4-(difluoromethoxy)-2-methylphenyl]-6-fluoro-N′-[(2-hydroxyphenyl)methyl]benzene-1,3-dicarboxamide]
UMUC9 cells; % efficacy (span)
  Emax: 51.4%
UMUC9 cells; UM-UC-9, relative IC50
  IC50: 2.89 nM
PPARG receptors; [2]
  IC50: 3.8 nM
PPARG receptors
  Emax: 83.5%

## Cc1cc(OC(F)F)ccc1NC(=O)c1cc(C(=O)NC(CO)c2ccc(F)cc2)c(F)cc1Cl (stereo not drawn) [Example 2, 4-chloro-N^3-[4-(difluoromethoxy)-2-methylphenyl]-6-fluoro-N^1-[1-(4-fluorophenyl)-2-hydroxyethyl]benzene-1,3-dicarboxamide]
UMUC9 cells; % efficacy (span)
  Emax: 72.7%
UMUC9 cells; UM-UC-9, relative IC50
  IC50: 204 nM
PPARG receptors; [2]
  IC50: 33 nM
PPARG receptors
  Emax: 110%

## O=C(NCc1ccc(F)c(F)c1)c1cc(C(=O)Nc2ccc(OC(F)F)cc2)c(Cl)cc1F [Example 3, 4-chloro-N^3-[4-(difluoromethoxy)phenyl]-N^1-[(3,4-difluorophenyl)methyl]-6-fluorobenzene-1,3-dicarboxamide]
UMUC9 cells; UM-UC-9, relative IC50
  IC50: > 6000 nM
PPARG receptors; [2]
  IC50: 3.15 nM
PPARG receptors
  Emax: 90.5%

## CCCOCc1cc(F)ccc1CNC(=O)c1cc(C(=O)Nc2ccc(C(F)(F)F)cc2C)c(Cl)cc1F [Example 4, 4-chloro-6-fluoro-N^1-{[4-fluoro-2-(propoxymethyl)phenyl]methyl}-N^3-[2-methyl-4-(trifluoromethyl)phenyl]benzene-1,3-dicarboxamide]
UMUC9 cells; % efficacy (span)
  Emax: 138%
UMUC9 cells; UM-UC-9, relative IC50
  IC50: 3.22 nM
PPARG receptors; [2]
  IC50: 8.35 nM
PPARG receptors
  Emax: 87%

## Cc1cc(OC(F)F)ccc1NC(=O)c1cc(C(=O)NCc2ccc(F)c(F)c2)cc(Cl)c1Cl [Example 7, 4,5-dichloro-N^3-[4-(difluoromethoxy)-2-methylphenyl]-N^1-[(3,4-difluorophenyl)methyl]benzene-1,3-dicarboxamide]
UMUC9 cells; % efficacy (span)
  Emax: 64.9%
UMUC9 cells; UM-UC-9, relative IC50
  IC50: 9.09 nM
PPARG receptors; [2]
  IC50: 1.4 nM
PPARG receptors
  Emax: 102%

## Cc1cc(OCCO)ccc1NC(=O)c1cc(C(=O)NCc2ccc(F)c(F)c2)cc(Cl)c1Cl [Example 8, 4,5-dichloro-N^1-[(3,4-difluorophenyl)methyl]-N^3-[4-(2-hydroxyethoxy)-2-methylphenyl]benzene-1,3-dicarboxamide]
UMUC9 cells; % efficacy (span)
  Emax: 71.5%
UMUC9 cells; UM-UC-9, relative IC50
  IC50: 32.2 nM
PPARG receptors; [2]
  IC50: 0.9 nM
PPARG receptors
  Emax: 96%

## Cc1cccc(-c2nc3cc(NC(=O)c4cc(C(=O)NCc5ccc(F)cc5)cc(Cl)c4Cl)ccc3o2)c1 [Example 9, 4,5-dichloro-N^1-[(4-fluorophenyl)methyl]-N^3-[2-(3-methylphenyl)-1,3-benzoxazol-5-yl]benzene-1,3-dicarboxamide]
UMUC9 cells; % efficacy (span)
  Emax: 58.1%
UMUC9 cells; UM-UC-9, relative IC50
  IC50: 4.51 nM
PPARG receptors; [2]
  IC50: 0.355 nM
PPARG receptors
  Emax: 105%

## Cc1cc(-c2nnco2)ccc1NC(=O)c1cc(C(=O)NCc2ccc(F)c(F)c2)c(F)cc1Cl [Example 10, 4-chloro-N^1-[(3,4-difluorophenyl)methyl]-6-fluoro-N^3-[2-methyl-4-(1,3,4-oxadiazol-2-yl)phenyl]benzene-1,3-dicarboxamide]
UMUC9 cells; % efficacy (span)
  Emax: 86.7%
PPARG receptors
  Emax: 108%
PPARG receptors; read-out: PPARG_RT-112_FABP4_NLuc_inverse agonist IC50 - [mol/l]
  IC50: 4.8 nM

## O=C(NCc1ccccc1)c1cc(Cl)c(Cl)c(C(=O)Nc2ccccc2)c1 [Example 16, N1-benzyl-4,5-dichloro-N^3-phenylbenzene-1,3-dicarboxamide]
UMUC9 cells; % efficacy (span)
  Emax: 24.8%
UMUC9 cells; UM-UC-9, relative IC50
  IC50: 24.7 nM

## O=C(NCc1ccccc1)c1cc(C(=O)Nc2ccccc2)c(Cl)cc1F [Example 28, N^1-benzyl-4-chloro-6-fluoro-N^3-phenylbenzene-1,3-dicarboxamide]
UMUC9 cells; % efficacy (span)
  Emax: 31.2%

## O=C(NCc1ccccc1)c1cc(Cl)c(Cl)c(C(=O)Nc2ccc(Cl)cn2)c1F [Example 32, N^1-benzyl-4,5-dichloro-N^3-(5-chloropyridin-2-yl)-2-fluorobenzene-1,3-dicarboxamide]
PPARG receptors; [2]
  IC50: 1.3 nM
PPARG receptors
  Emax: 74%

## Cc1cc(N2CCOCC2)cnc1NC(=O)c1cc(C(=O)NCc2ccc(F)c(F)c2)c(F)cc1Cl [Example 41, 4-chloro-N^1-(3,4-difluorobenzyl)-6-fluoro-N^3-(3-methyl-5-morpholinopyridin-2-yl)isophthalamide]
UMUC9 cells; % efficacy (span)
  Emax: 98.9%

## O=C(NCc1ccccc1)c1ccc(Cl)c(C(=O)Nc2ccccc2)c1 [Example 43, N^1-benzyl-4-chloro-N^3-phenylbenzene-1,3-dicarboxamide]
UMUC9 cells; % efficacy (span)
  Emax: 27.1%

## O=C(NCc1ccc(F)cc1)c1ccc(Cl)c(C(=O)Nc2ccccc2)c1 [Example 45, 4-chloro-N^1-[(4-fluorophenyl)methyl]-N^3-phenylbenzene-1,3-dicarboxamide]
UMUC9 cells; % efficacy (span)
  Emax: 57.6%

## COc1ccccc1CNC(=O)c1ccc(Cl)c(C(=O)Nc2ccccc2)c1 [Example 46, 4-chloro-N^1-[(2-methoxyphenyl)methyl]-N^3-phenylbenzene-1,3-dicarboxamide]
UMUC9 cells; % efficacy (span)
  Emax: 70.6%
UMUC9 cells; UM-UC-9, relative IC50
  IC50: 2630 nM

## O=C(NCc1ccccc1)c1ccc(Br)c(C(=O)Nc2ccccc2)c1 [Example 48, N^1-benzyl-4-bromo-N^3-phenylbenzene-1,3-dicarboxamide]
UMUC9 cells; % efficacy (span)
  Emax: 43.1%

## CC(C)(O)c1ccc(NC(=O)c2cc(C(=O)NCc3ccc(F)c(F)c3)c(F)cc2Cl)cc1 [Example 51, 4-chloro-N^1-[(3,4-difluorophenyl)methyl]-6-fluoro-N^3-[4-(2-hydroxypropan-2-yl)phenyl]benzene-1,3-dicarboxamide]
UMUC9 cells; % efficacy (span)
  Emax: 69.2%
UMUC9 cells; UM-UC-9, relative IC50
  IC50: 38.5 nM
